Reference: patent US10328062B2, “Biomarkers and use of MET inhibitor for treatment of cancer” (AMGEN, INC., priority 2014, dated 2019)

Legend:
[1] = tested on: MET signaling (phospho-MET, phospho-Gab1, phospho-AKT, phospho-ERK) in MKN45, SNU-620 and SNU-5; assay: Immunoblot analysis of PI3K and MAPK signaling pathways; assay type: cell-based, Human; conditions: 100 nM, 2 hours
Procedure: Cells were seeded in 10 cm dishes at varying densities and allowed to adhere by incubating at 37° C. and 5% CO2 overnight. […] Cells were harvested in 250 μL lysis buffer containing protease and phosphatase inhibitors. For suspension cell lines, cells were pelleted prior to lysis buffer addition. Protein concentrations for individual lysates were measured using a BCA protein assay. 25 μg of protein lysate per sample was resolved on Life Technologies (Carlsbad, Calif.) NuPAGE Bis-Tris gels per manufacturer's. Samples were transferred to nitrocellulose membranes for Western blot analysis. Membranes were blocked in 5% milk prepared in TBST for 1 hour at room temperature. Total and phospho-specific antibodies for specified endpoints were used at 1:1000 dilutions in 5% milk/TBST (total) or 5% BSA/TBST (phospho). Membranes were incubated in the presence of appropriate primary antibody overnight at 4° C. Secondary anti-species-IgG HRP conjugated antibodies were diluted 1:5000 in 5% milk/TBST and incubated in the presence of membranes for 1 hour at room temperature. Membranes were exposed to Thermo Scientific (Waltham, Mass.) Super Signal PICO West ECL detection reagent per manufacturer's recommended protocol and exposed to film to document signal.
Antibodies detecting total and phospho-MET (Y1234/1235), phospho-Gab1 (Y627), total and phospho-AKT (S473), total and phospho-ERK (T202/Y204), cleaved caspase-3, and cleaved PARP were purchased from Cell Signaling Technologies (Beverly, Mass.). The total β-actin antibody was purchased from Thermo Scientific (Waltham, Mass.). Both secondary anti-rabbit and anti-mouse IgG-HRP conjugated antibodies were purchased from Thermo Scientific (Waltham, Mass.).
Subsequent lysates were analyzed by SDS-PAGE and immunoblot using antibodies detecting total and phospho-MET (Y1234/[…]), phospho-Gab1 (Y627), total and phospho-AKT (S473), and total and phospho-ERK 1/2 (T202/Y204).

[2] = Phase 1 Study 20101132 safety; assay type: in vivo
Procedure: Eligible subjects have disease that is refractory or resistant to standard treatments or disease for which no standard therapy exists.
Safety is assessed according to Common Terminology Criteria for Adverse Events (CTCAE) v4.0 criteria and the DLT (dose limiting toxicity) window is 28 days. Dose escalation is proceeding with a modified 3+3+3 design, which defines the MTD (maximum tolerated dose) to have been exceeded when ≥3 subjects in a cohort experience a DLT.
Enrollment is proceeding as follows: if no DLT is observed within the first 28 days in the initial 3 to 4 subjects of a cohort, dose escalation to the next higher dose level cohort will occur. If 1 DLT is observed, 3 additional subjects will be enrolled at the same dose level for a total of at least 6 subjects. If no further DLT(s) are observed, escalation to the next higher dose level cohort will occur. If a second DLT is observed, 3 additional subjects will be enrolled at the same dose level for a total of at least 9 subjects. If no further DLTs are observed, dose escalation to the next higher dose level will occur. If ≥3 DLTs are observed in the first 3 to 9 subjects, then enrolment stops at the third DLT observation and enrolment into a cohort at a lower dose level will be considered.
Dose escalation consists of up to 8 cohorts of 3 to 9 evaluable subjects each. Initially, up to 4 subjects may enroll into a cohort. The planned cohort dose levels are as follows: QD cohorts, cohort 1, 25 mg; cohort 2, 50 mg; cohort 3, 100 mg; cohort 3A, 150 mg; cohort 4, 200 mg; cohort 5, 300 mg; cohort 6, 400 mg; and cohort 7, 500 mg; BID cohorts, cohort B1 100 mg, cohort B2 150 mg, cohort B3 200 mg. The MTD is defined as the highest dose level with an observed incidence of DLT in <33% of subjects enrolled in a cohort. At least 6 subjects will be treated at the MTD. An expansion cohort of up to 20 subjects at the MTD (determined in the dose escalation portion) will be considered to obtain further safety, PK, and efficacy data.
The 300-mg dose was identified as an MTD for QD dosing schedule and the recommended phase 2 dose. Twice daily dose escalation is currently ongoing and the MTD has not yet been determined as of the data cutoff date. As of the data cutoff date of 23 Jul. 2014, tumor-response data were available from 84 subjects in Study 20101132, including data on 62 subjects with >1 post-screening Response Evaluation Criteria in Solid Tumors (RECIST) tumor measurement by central read (22 subjects had screening data only). […] Of these 7 responders, 6 had gastric, gastroesophageal junction (GEJ) or esophageal adenocarcinoma with evidence of MET amplification identified by fluorescence in-situ hybridization assay performed by an experienced local laboratory per regulatory guideline.

**Q.** With `COCCOc1cnc2ccn([C@H](C)c3nnc4c(F)cc(-c5cnn(C)c5)cn34)c(=O)c2c1` [Compound M, 6-{(1R)-1-[8-fluoro-6-(1-methyl-1H-pyrazol-4-yl)[1,2,4]triazolo[4,3-a]pyridin-3-yl]ethyl}-3-(2-methoxyethoxy)-1,6-naphthyridin-5(6H)-one] as the compound, how does the “Phosphorylation of Gab1 (Y627)” value [1] read?
**A.** inhibited

**Q.** And the “Phosphorylation of MET (Y1234/1235)” value [1]?
**A.** inhibited

**Q.** And the “phospho-AKT (S473), PI3K pathway” value [1]?
**A.** reduction

**Q.** What about the “phospho-ERK (T202/Y204), MAPK pathway” value [1] of the same compound?
**A.** reduction

**Q.** What about the “MTD and recommended phase 2 dose” value ([2]; QD dosing schedule) of the same compound?
**A.** 300 mg

**Q.** What about the “adverse event: anemia” value ([2]; human, in vivo) of the same compound?
**A.** 21.1%

**Q.** And the “adverse event: aspartate aminotransferase (AST) increased” value ([2]; human, in vivo)?
**A.** 10%

**Q.** What about the “adverse event: back pain” value ([2]; human, in vivo) of the same compound?
**A.** 15.6%

**Q.** What about the “adverse event: constipation” value ([2]; human, in vivo) of the same compound?
**A.** 23.3%

**Q.** What about the “adverse event: decreased appetite” value ([2]; human, in vivo) of the same compound?
**A.** 16.7%

**Q.** What about the “adverse event: diarrhea” value ([2]; human, in vivo) of the same compound?
**A.** 15.6%

**Q.** And the “adverse event: dizziness” value ([2]; human, in vivo)?
**A.** 10%

**Q.** What about the “adverse event: dry skin” value ([2]; human, in vivo) of the same compound?
**A.** 12.2%

**Q.** What about the “adverse event: dyspnea” value ([2]; human, in vivo) of the same compound?
**A.** 15.6%

**Q.** And the “adverse event: fatigue” value ([2]; human, in vivo)?
**A.** 40%

**Q.** And the “adverse event: headache” value ([2]; human, in vivo)?
**A.** 64.4%

**Q.** What about the “adverse event: hypoalbuminemia” value ([2]; human, in vivo) of the same compound?
**A.** 20%

**Q.** What about the “adverse event: myalgia” value ([2]; human, in vivo) of the same compound?
**A.** 12.2%

**Q.** What about the “adverse event: nausea” value ([2]; human, in vivo) of the same compound?
**A.** 43.3%

**Q.** And the “adverse event: peripheral edema” value ([2]; human, in vivo)?
**A.** 18.9%

**Q.** And the “adverse event: rash” value ([2]; human, in vivo)?
**A.** 11.1%

**Q.** What about the “adverse event: vomiting” value ([2]; human, in vivo) of the same compound?
**A.** 26.7%
